pIC50: −log10 of the molar value.
Target: human plasma protein factor Xa (Homo sapiens (Human), UniProt P00742)
Assay: FXa inhibitory activity, IC50 determination (cleavage of paranitroanilide substrate S-2765)
Format: biochemical
Details: factor Xa 1 nM, S2765 100 μM, Tris buffered saline pH 7.4
Excerpt: This example illustrates methods for evaluating the compounds, along with results obtained for such assays. As mentioned above, the compound may be selected based on its factor Xa inhibitory activity. The in vitro factor Xa activities of the compounds can be determined by various procedures known in the art. […] The IC50 value is the concentration (in nM) of the compound required to provide 50% inhibition of factor Xa proteolytic activity.
An in vitro assay for detecting and measuring inhibition activity against factor Xa is as follows:
The substrate S-2765 (Z-D-Arg-Gly-Arg-pNA.HCl) can be obtained from Diapharma (West Chester, Ohio).
The human plasma protein factor Xa can be purchased from Haematologic Technologies (Essex Junction, Vt.).
All assays, which are performed in 96-well microtiter plates, measure proteolytic activity of the enzyme (factor Xa) by following cleavage of a paranitroanilide peptide substrate. The assay buffer used for proteolytic assays was Tris buffered saline (20 mM Tris, 150 mM NaCl, 5 mM CaCl2, 0.1% Bovine serum albumin (BSA), 5% dimethly sulfoxide (DMSO) pH 7.4). In a 96-well microtiter plate, inhibitor was serially diluted to give a range of final concentrations from 0.01 nM to 10 μM. Duplicate sets of wells were assayed and control wells without inhibitor were included. Enzyme was added to each well, (factor Xa concentration=1 nM), the plate was shaken for 5 seconds and then incubated for 5 minutes at room temperature. S2765 was added (100 μM final) and the plate was shaken for 5 seconds (final volume in each well was 200 μL). The degree of substrate hydrolysis was measured at 405 nm on a Thermomax plate reader (Molecular Devices, Sunnyvale, Calif.) for 2 minutes. The initial velocities of substrate cleavage (mOD/min), for each range of inhibitor concentrations, were fitted to a four parameter equation using Softmax data analysis software. The parameter C, derived from the resulting curve-fit, corresponded to the concentration for half maximal inhibition (IC50).

Chain of human plasma protein factor Xa (P00742 41-179): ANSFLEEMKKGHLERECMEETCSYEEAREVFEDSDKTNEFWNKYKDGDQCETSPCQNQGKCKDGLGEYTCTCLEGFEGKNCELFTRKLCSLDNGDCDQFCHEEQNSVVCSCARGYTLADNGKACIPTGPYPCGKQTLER
Chain of human plasma protein factor Xa (P00742 235-488): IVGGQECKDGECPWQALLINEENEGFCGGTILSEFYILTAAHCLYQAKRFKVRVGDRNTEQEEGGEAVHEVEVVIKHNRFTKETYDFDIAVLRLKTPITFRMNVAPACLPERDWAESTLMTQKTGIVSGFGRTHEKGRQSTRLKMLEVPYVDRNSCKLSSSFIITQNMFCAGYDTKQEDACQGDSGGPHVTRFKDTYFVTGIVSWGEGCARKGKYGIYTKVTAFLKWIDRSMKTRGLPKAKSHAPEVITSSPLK

SMILES	pIC50
CS(=O)(=O)c1ccc(C(=O)Nc2ccc(Cl)cc2C(=O)Nc2ccc(Cl)cn2)c(NCCCCCCCN)c1	6.49
NCCCCCCNc1cc(C(F)(F)F)ccc1C(=O)Nc1ccc(Cl)cc1C(=O)Nc1ccc(Cl)cn1	6.21

Now those with a higher pIC50, led by results:

pIC50	SMILES
6.64	CN(C)C(=N)c1ccc(C(=O)Nc2ccc(OCC(=O)NCCCCCCN)cc2C(=O)Nc2ccccn2)cc1
7.62	CN(C)C(=N)c1ccc(C(=O)Nc2ccc(OCC(=O)NCCCCCCN)cc2C(=O)Nc2ccc(Cl)cn2)cc1
6.80	CS(=O)(=O)c1ccc(C(=O)Nc2ccc(Cl)cc2C(=O)Nc2ccc(Cl)cn2)c(NCCCCCCN)c1
